Assay results: patent publication US11192900B2, “Substituted 1,6-dihydropyridinones and 1,2-dihydroisoquinolinones as bet inhibitors” (NUVATION BIO INC., priority 2018, dated 2021)
Like-named read-outs stand apart in the source and are kept apart here.

Key:
[1] = test system: IEC-6 rat intestinal epithelial cell line; assay: IEC-6 cell viability, Protocol A (toxicity to non-cancerous cells); format: cell-based; conditions: IEC-6, 3000 cells per well, 96 hrs
Method: The effects of test compounds were also studied in the IEC-6 rat intestinal epithelial cell line to assess potential toxicity to non-cancerous cells. The cells were harvested during the logarithmic growth period and counted. In Protocol A, cells were seeded at a count of 3000 cells per well/100 μl in a 96-well plate. After seeding, cells were incubated at 37° C., 5% CO2 for 24 hr. Cells were treated with test compounds at 8 concentrations within a desired concentration range (e.g. 5 nM-10 μM) for generation of dose response curves by preparing serial dilutions of the test compound in DMSO which were further diluted with culture medium and then added to each well. The plate was further incubated for another 96 hrs in humidified incubator at 37° C. and 5% CO2. The assay was terminated by addition of resazurin (# R7017, Sigma). The plate was incubated for 4 hr at 37° C., 5% CO2 and fluorescence was measured using excitation and emission wavelengths of 535 and 590 nm, respectively. Cell viability data were plotted using GraphPad Prism (GraphPad Software, Inc., San Diego, Calif.). In addition, a nonlinear regression model with a sigmoidal dose response and variable slope within GraphPad Prism was used to calculate the IC50 value of individual test compounds. […]

[2] = test system: MDA-MB-231 human breast adenocarcinoma cell line; assay: Cell viability assay (resazurin); format: cell-based; conditions: MDA-MB-231, resazurin, 96 hrs
Method: (§1) The effects of test compounds were also studied in the 22Rv1 human prostate carcinoma and MDA-MB-231 human breast adenocarcinoma cell lines. The cells were harvested during the logarithmic growth period and counted. Cells were seeded at a count of 3000 cells (22Rv1) or 5000 cells (MDA-MB-231) per well/100 μl in a 96-well plate. After seeding, cells were incubated at 37° C., 5% CO2 for 24 hr. Cells were treated with test compounds at 8 concentrations within a desired concentration range (e.g. 5 nM-10 μM) for generation of dose response curves by preparing serial dilutions of the test compound in DMSO which were further diluted with culture medium and then added to each well. The plate was further incubated for another 72 hrs (22Rv1) or 96 hrs (MDA-MB-231) in humidified incubator at 37° C. and 5% CO2. The assay was terminated by addition of resazurin (# R7017, Sigma). The plate was incubated for 4 hr at 37° C., 5% CO2 and fluorescence was measured using excitation and emission wavelengths of 535 and 590 nm, respectively. Cell viability data were plotted using GraphPad Prism (GraphPad Software, Inc., San Diego, Calif.). In addition, a nonlinear regression model with a sigmoidal dose response and variable slope within GraphPad Prism was used to calculate the IC50 value of individual test compounds.

[3] = test system: 22Rv1 human prostate carcinoma cell line; assay: Cell viability assay (resazurin); format: cell-based; conditions: 22Rv1, resazurin, 72 hrs
Method: as §1

BRD3-2 = BRD3-2 (Homo sapiens (Human), UniProt Q15059); assay: Bromodomain and Extraterminal Domain (BET) Binding Assay
Outline: (§2)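 AlphaScreen displacement of biotinylated H4 (1-21) K5/8/12/16Ac peptide, in 50 mM HEPES pH 7.5, 100 mM NaCl, 1 mg/ml BSA, 0.05% CHAPS, 0.5% DMSO. Protein-compound preincubation 30 min RT, then ligand 30 min, donor then acceptor beads 60 min dark. Inhibition versus plate controls; IC50 from 10-point titrations.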

BRD4-2 = BRD4-2 (Homo sapiens (Human), UniProt O60885); assay: as above
Outline: as §2

BRD3-1 = BRD3-1 (Homo sapiens (Human), UniProt Q15059); assay: as above
Outline: as §2

BRD2-2 = BRD2-2 (Homo sapiens (Human), UniProt P25440); assay: as above
Outline: as §2

BRD4-1 = BRD4-1 (Homo sapiens (Human), UniProt O60885); assay: as above
Outline: as §2

BRD2-1 = BRD2-1 (Homo sapiens (Human), UniProt P25440); assay: as above
Outline: as §2

BRDT-1 = BRDT-1 (Homo sapiens (Human), UniProt Q58F21); assay: as above
Outline: as §2

MV4-11 cells = assay: Cell viability assay after wash-off (FITC-annexin V / 7-AAD flow cytometry); format: cell-based, human; conditions: MV4-11, 0.5 or 2 μM for 2 or 4 hr, total 48 hr
Method: MV4-11 cells were incubated with compound (at a concentration of 0.5 or 2 μM) or mivebresib (at a concentration of 0.5 or 2 μM) for 2 or 4 hr before wash-off with culture medium and re-plated in fresh culture medium for a total of 48 hr. Cells were stained with FITC-annexin V and 7-AAD before flow cytometric analysis using a Stratedigm flow cytometer. Viable cells are negative for FITC-annexin V and 7-AAD.

Chain of BRD3-2 (Q15059 306-415): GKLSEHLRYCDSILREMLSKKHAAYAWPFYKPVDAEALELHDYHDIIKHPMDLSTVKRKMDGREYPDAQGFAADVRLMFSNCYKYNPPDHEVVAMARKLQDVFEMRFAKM
Chain of BRD3-1 (Q15059 34-140): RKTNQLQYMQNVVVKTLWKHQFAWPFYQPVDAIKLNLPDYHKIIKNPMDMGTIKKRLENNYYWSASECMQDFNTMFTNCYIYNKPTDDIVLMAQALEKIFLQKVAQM
Chain of BRD2-1 (P25440 74-180): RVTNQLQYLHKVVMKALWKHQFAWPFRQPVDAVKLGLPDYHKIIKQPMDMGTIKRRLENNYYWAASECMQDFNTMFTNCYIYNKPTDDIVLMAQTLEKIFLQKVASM
Chain of BRD2-2 (P25440 344-453): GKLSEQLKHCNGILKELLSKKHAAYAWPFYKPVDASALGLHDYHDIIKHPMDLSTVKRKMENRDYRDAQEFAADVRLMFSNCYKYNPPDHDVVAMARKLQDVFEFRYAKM

- IC50 [2]: 82 nM
- IC50 [3]: 58 nM
- IC50 (BRD3-2): 29 nM
- IC50 (BRD4-2; Table 2, read-out: BET IC50 BRD4-2): 21 nM
- IC50 (BRD4-2; Table 3, read-out: BRD4-2 IC50): 21 nM
- IC50 (BRD3-1): 35 nM
- IC50 (BRD2-2): 12 nM
- IC50 (BRD4-1; Table 2, read-out: BET IC50 BRD4-1): 24 nM
- IC50 (BRD4-1; Table 3, read-out: BRD4-1 IC50): 24 nM
- IC50 (BRD2-1): 16 nM
- IC50 (BRDT-1): 31 nM
Structure (SMILES): C=CS(=O)(=O)Nc1ccc(Oc2ccc(F)cc2F)c(-c2cc(NC)c(=O)n(C)c2)c1 [Compound 3, N-(4-(2,4-difluorophenoxy)-3-(1-methyl-5-(methylamino)-6-oxo-1,6-dihydropyridin-3-yl)phenyl)ethenesulfonamide]
- IC50 [1]: 339 nM
- cell inhibition activity after transient exposure (viable cells after wash-off) (MV4-11 cells): sustained cell inhibition activity
